Laboratory results: US4971967A, “Quinolinecarboxylic acid derivatives, antibacterial compositions and use” (Kanebo Ltd, priority 1989, dated 1990)
In brackets after ≈: the same amount, converted by molar mass. Where a name gives a salt, the structure may show the parent alone. Read-outs that look alike come from different tables or passages of the source.

Columns and labels:
[1] = tested on: Staphylococcus aureus IID 803; test: Effect on treatment of general infectious disease, S. aureus IID 803 (Experiment 3); assay type: in vivo, ddY male mice infected with Staphylococcus aureus; conditions: IID803, 168 h, oral, 1 h after i.p. infection, 5.0×10^7 CFU/mouse, survival after one week
Description: Staphylococcus aureus IID 803 (5.0×10^7 CFU/mouse)
(§1) The test microorganisms were subjected to standing culture in Trypto-Soya Agar "Nissui" (made by Nissui Seiyaku K.K., Japan) at 37° C. for 16 to 18 hours. The culture was then diluted with PBS (Dulbecco's phosphate buffered saline) and mixed with an equivalent amount of 10% (w/v) Mucin (BACTO MUCIN BACTERIOLOGICAL, made by Difco Co.) to prepare a microorganism solution. The thus prepared microorganism solution (0.5 ml each) was intraperitoneally inoculated to ddY male mice (5 weeks age, weighing 25-28 g, 5 mice in each group), to infect the animals. One hour after the infection, the compound (A) or (J) of the present invention or the known compound (X) suspended in 1% (w/v) aqueous gum arabic or the known compound (Y) dissolved in sterilized distilled water was orally adiministered to mice.
(§2) The mice were daily observed for one week, and from the survival number of mice after one week, the 50% effective dose (ED50) was calculated by Weil method.

Enterobacter cloacae 963 = test: Antibacterial activity (MIC), Enterobacter cloacae 963; assay type: cell-based; conditions: Enterobacter cloacae, 963, Enterobacter cloacae 963, Gram -; read-out: Minimum inhibitory concentration (MIC)
Description: (§3) The compounds of the present invention (A, C, D, E, F, G, H, I, J, L, O and P) and the known compound (X) as reference were dissolved in 0.1 N aqueous sodium hydroxide to prepare a solution of 5000 μg/ml in concentration. The compounds of the present invention (B, K, M and N) and the known compound (Y) were dissolved in sterilized distilled water to prepare a solution of 5000 μg/ml in concentration. Each solution was diluted with sterilized distilled water to prepare a standard solution with a concentration of each test compound: 1000 μg/ml. The test was carried out by a method as appointed by Japan Society of Chemotherapy [cf. Chemotherapy, 29, 76-79 (1981)(TOKYO)].

[2] = tested on: Pseudomonas aeruginosa IFO 3445; test: Antibacterial activity (MIC), P. aeruginosa IFO 3445; assay type: cell-based; conditions: Pseudomonas aeruginosa, IFO3445, Pseudomonas aeruginosa IFO 3445, Gram -; read-out: Minimum inhibitory concentration (MIC)
Description: as §3

[3] = tested on: Citrobacter freundii NIHJ 10018-68; test: Antibacterial activity (MIC), Citrobacter freundii NIHJ 10018-68; assay type: cell-based; conditions: Citrobacter freundii, NIHJ10018, Citrobacter freundii NIHJ 10018-68, Gram -; read-out: Minimum inhibitory concentration (MIC)
Description: as §3

[4] = tested on: Pseudomonas aeruginosa NCTC 10490; test: Antibacterial activity (MIC), P. aeruginosa NCTC 10490; assay type: cell-based; conditions: Pseudomonas aeruginosa, NCTC10490, Pseudomonas aeruginosa NCTC 10490, Gram -; read-out: Minimum inhibitory concentration (MIC)
Description: as §3

Escherichia coli KC-14 = test: Antibacterial activity (MIC), E. coli KC-14; assay type: cell-based; conditions: KC14; Escherichia coli KC-14, Gram -; read-out: Minimum inhibitory concentration (MIC)
Description: as §3

[5] = tested on: Staphylococcus aureus IID 803; test: Antibacterial activity (MIC), S. aureus IID 803; assay type: cell-based; conditions: IID803; Staphylococcus aureus IID 803, Gram +; read-out: Minimum inhibitory concentration (MIC)
Description: as §3

[6] = tested on: Acinetobacter calcoaceticus AC 54; test: Antibacterial activity (MIC), Acinetobacter calcoaceticus AC 54; assay type: cell-based; conditions: AC54; Acinetobacter calcoaceticus AC 54, Gram -; read-out: Minimum inhibitory concentration (MIC)
Description: as §3

[7] = tested on: Micrococcus luteus ATCC 9341; test: Antibacterial activity (MIC), Micrococcus luteus ATCC 9341; assay type: cell-based; conditions: ATCC9341; Micrococcus luteus ATCC 9341, Gram +; read-out: Minimum inhibitory concentration (MIC)
Description: as §3

[8] = tested on: Bacillus subtilis ATCC 6633; test: Antibacterial activity (MIC), Bacillus subtilis ATCC 6633; assay type: cell-based; conditions: Bacillus subtilis, ATCC6633, Bacillus subtilis ATCC 6633, Gram +; read-out: Minimum inhibitory concentration (MIC)
Description: as §3

Shigella sonnei EW-33 = test: Antibacterial activity (MIC), Shigella sonnei EW-33; assay type: cell-based; conditions: Shigella sonnei, EW33, Shigella sonnei EW-33, Gram -; read-out: Minimum inhibitory concentration (MIC)
Description: as §3

[9] = tested on: Staphylococcus aureus FDA 209P JC-1; test: Antibacterial activity (MIC), S. aureus FDA 209P JC-1; assay type: cell-based; conditions: FDA209P; Staphylococcus aureus FDA 209P JC-1, Gram +; read-out: Minimum inhibitory concentration (MIC)
Description: as §3

[10] = tested on: Staphylococcus epidermidis IAM-1296; test: Antibacterial activity (MIC), S. epidermidis IAM-1296; assay type: cell-based; conditions: Staphylococcus epidermidis, IAM1296, Staphylococcus epidermidis IAM-1296, Gram +; read-out: Minimum inhibitory concentration (MIC)
Description: as §3

[11] = tested on: Serratia marcescens IAM 1184; test: Antibacterial activity (MIC), Serratia marcescens IAM 1184; assay type: cell-based; conditions: Serratia marcescens, IAM1184, Serratia marcescens IAM 1184, Gram -; read-out: Minimum inhibitory concentration (MIC)
Description: as §3

[12] = tested on: Pseudomonas aeruginosa E-2; test: Antibacterial activity (MIC), P. aeruginosa E-2; assay type: cell-based; conditions: E2; Pseudomonas aeruginosa E-2, Gram -; read-out: Minimum inhibitory concentration (MIC)
Description: as §3

[13] = tested on: Escherichia coli NIHJ JC-2; test: Antibacterial activity (MIC), E. coli NIHJ JC-2; assay type: cell-based; conditions: NIHJJC2; Escherichia coli NIHJ JC-2, Gram -; read-out: Minimum inhibitory concentration (MIC)
Description: as §3

[14] = tested on: Enterobacter aerogenes ATCC 13048; test: Antibacterial activity (MIC), Enterobacter aerogenes ATCC 13048; assay type: cell-based; conditions: Klebsiella aerogenes, ATCC13048; Enterobacter aerogenes ATCC 13048, Gram -; read-out: Minimum inhibitory concentration (MIC)
Description: as §3

[15] = tested on: Morganella morganii IFO 3848; test: Antibacterial activity (MIC), Morganella morganii IFO 3848; assay type: cell-based; conditions: Morganella morganii, IFO3848, Morganella morganii IFO 3848, Gram -; read-out: Minimum inhibitory concentration (MIC)
Description: as §3

[16] = tested on: clinically isolated methicillin resistant Staphylococcus aureus; test: MIC against clinically isolated methicillin resistant Staphylococcus aureus; assay type: cell-based; conditions: 54 strains; for MIC50: minimum concentration for inhibiting growth of the strains by 50%; for MIC90: minimum concentration for inhibiting growth of the strains by 90%
Description: The compounds (A) and (J) of the present invention and the known compound (X) were dissolved in 0.1 N aqueous sodium hydroxide, and the known compound (Y) in sterilized distilled water, to prepare a solution of 5000 μg/ml in concentration each. The above solutions were then diluted with sterilized distilled water to prepare a standard solution with a concentration of the test compound: 1000 μg/ml each. The test was carried out by a method appointed by Japan Society of Chemotherapy (ibidem) to measure minimum inhibitory concentration (MIC) against 54 strains of clinically isolated methicillin resistant Staphylococcus aureus, from which there were calculated a range of MIC (MICrange) of the test compound against these resistant strains, a minimum concentration for inhibiting the growth of the strains by 50% (MIC50) and a minimum concentration for inhibiting the growth of the strains by 90% (MIC90).

[17] = tested on: Klebsiella pneumoniae PCI-602; test: Antibacterial activity (MIC), Klebsiella pneumoniae PCI-602; assay type: cell-based
Description: as §3

[18] = tested on: Pseudomonas aeruginosa E-2; test: Effect on treatment of general infectious disease, P. aeruginosa E-2 (Experiment 3); assay type: in vivo, ddY male mice infected with Pseudomonas aeruginosa; conditions: E2, 168 h, oral, 1 h after i.p. infection, 3.1×10^4 CFU/mouse, survival after one week
Description: Pseudomonas aeruginosa E-2 (3.1×10^4 CFU/mouse)
as §1, §2

[19] = tested on: Salmonella typhimurium IID 971; test: Antibacterial activity (MIC), Salmonella typhimurium IID 971; assay type: cell-based; conditions: Salmonella enterica; Salmonella typhimurium IID 971, Gram -; read-out: Minimum inhibitory concentration (MIC)
Description: as §3

Proteus vulgaris OX-19 = test: Antibacterial activity (MIC), Proteus vulgaris OX-19; assay type: cell-based; conditions: OX19; Proteus vulgaris OX-19, Gram -; read-out: Minimum inhibitory concentration (MIC)
Description: as §3

[20] = tested on: Streptococcus faecalis IID 682; test: Antibacterial activity (MIC), Streptococcus faecalis IID 682; assay type: cell-based; conditions: Enterococcus faecalis, IID682, Streptococcus faecalis IID 682, Gram +; read-out: Minimum inhibitory concentration (MIC)
Description: as §3

[21] = tested on: Proteus mirabilis IFO 3849; test: Antibacterial activity (MIC), Proteus mirabilis IFO 3849; assay type: cell-based; conditions: IFO3849; Proteus mirabilis IFO 3849, Gram -; read-out: Minimum inhibitory concentration (MIC)
Description: as §3

Row | Structure (SMILES) | ED50 [1] [mg/kg] | MIC (Enterobacter cloacae 963) [µg/mL] | MIC [2] [µg/mL] | MIC [3] [µg/mL] | MIC [4] [µg/mL] | MIC (Escherichia coli KC-14) [µg/mL] | MIC [5] [µg/mL] | MIC [6] [µg/mL] | MIC [7] [µg/mL] | MIC [8] [µg/mL] | MIC (Shigella sonnei EW-33) [µg/mL] | MIC [9] [µg/mL] | MIC [10] [µg/mL] | MIC [11] [µg/mL] | MIC [12] [µg/mL] | MIC [13] [µg/mL] | MIC [14] [µg/mL] | MIC [15] [µg/mL] | MIC [16] [µg/mL] | MIC50 [16] [µg/mL] | further results
1 | CC1COc2c(N3CCN(C)CC3)c(F)cc3c(=O)c(C(=O)O)cn1c23 (stereo not drawn) [Compound (X), 9-Fluoro-3-methyl-10-(4-methyl-1-piperazinyl)-7-oxo-2,3-dihydro-7H-pyrido[1,2,3-de][1,4]-benzoxazine-6-carboxylic acid, reference compound] | 14 | 0.2 (≈ 0.553 µM) | 1.56 (≈ 4.32 µM) | 0.39 (≈ 1.08 µM) | 1.56 (≈ 4.32 µM) | 0.1 (≈ 0.277 µM) | 0.39 (≈ 1.08 µM) | 0.39 (≈ 1.08 µM) | 3.13 (≈ 8.66 µM) | 0.1 (≈ 0.277 µM) | 0.05 (≈ 0.138 µM) | 0.39 (≈ 1.08 µM) | 0.78 (≈ 2.16 µM) | 0.78 (≈ 2.16 µM) | 1.56 (≈ 4.32 µM) | 0.1 (≈ 0.277 µM) | 0.1 (≈ 0.277 µM) | 0.1 (≈ 0.277 µM) | 0.39 to 1.56 (≈ 1.08 to 4.32 µM) | 0.78 (≈ 2.16 µM) | MIC90 [16]: 1.56 µg/mL (≈ 4.32 µM); MIC ([17]; PCI602, Klebsiella pneumoniae PCI-602, Gram -, read-out: Minimum inhibitory concentration (MIC)): 0.05 µg/mL (≈ 0.138 µM); ED50 [18]: 14 mg/kg; MIC [19]: 0.05 µg/mL (≈ 0.138 µM); MIC (Proteus vulgaris OX-19): 0.05 µg/mL (≈ 0.138 µM); MIC [20]: 1.56 µg/mL (≈ 4.32 µM); MIC [21]: 0.39 µg/mL (≈ 1.08 µM)
2 | CN1CCN(c2c(F)cc3c(=O)c(C(=O)O)c4scc5n4c3c2OC5)CC1 [Compound (Y), 9,1-Epoxymethano-7-fluoro-8-(4-methyl-1-piperazinyl)-5-oxo-5H-thiazolo[3,2-a]quinoline-4-carboxylic acid hydrochloride, reference compound] | 11.7 | 0.1 | 1.56 | 0.2 | 0.78 | 0.1 | 0.2 | 0.2 | 1.56 | 0.1 | 0.05 | 0.2 | 0.39 | 0.39 | 0.78 | 0.1 | 0.1 | 0.1 | 0.05 to 0.39 | 0.1 | MIC90 [16]: 0.2 µg/mL; MIC ([17]; Klebsiella pneumoniae, PCI602, read-out: Minimum inhibitory concentration (MIC)): 0.025 µg/mL; ED50 [18]: 11.7 mg/kg; MIC [19]: 0.05 µg/mL; MIC (Proteus vulgaris OX-19): 0.05 µg/mL; MIC [20]: 0.78 µg/mL; MIC [21]: 0.2 µg/mL
